We go through 3 compounds from patent US8088814B2, “Methods and compositions for the treatment of psychiatric disorders” (priority 2001, dated 2012).

In data set [1] the test system is schizophrenic patients. On the procedure:
The statistics were performed according to the criterion of “last observation carried forward” (LOCF), i.e., the last PANSS scores of the patients who dropped out before the end of the study were carried forward to all subsequent observation days. For the comparison of the main efficacy parameter, the mean change in the PANSS between the two treatment groups, t-tests for independent samples were employed. […] For all other comparisons, two-tailed t-tests were used.

Like-named read-outs stand apart in the source and are kept apart here.

In the case of `Cc1nc2n(c(=O)c1CCN1CCC(c3noc4cc(F)ccc34)CC1)CCCC2O` (stereo not drawn) [9-OH-risperidone], the “differences in the plasma levels between risperidone-celecoxib and risperidone-placebo treatment” value (human, in vivo) was “without statistical significance”.
In the case of `Cc1ccc(-c2cc(C(F)(F)F)nn2-c2ccc(S(N)(=O)=O)cc2)cc1` [celecoxib], the “treatment of depressive states” value in data set [1] (add-on celecoxib therapy in schizophrenic patients) is “useful”. Also, the “PANSS items lack of contact, emotional isolation, passive-apathic isolation, social withdrawal, depression, motor retardation” value in data set [1] (detailed item analysis, good celecoxib-responders vs placebo group, add-on to risperidone) is given as “therapeutic effects”. In addition, the “factor analysis: items subsumed under the label agitation” value in data set [1] (response to celecoxib but not to placebo, add-on to risperidone) is on record as “good therapeutic response”.
With risperidone [placebo and risperidone], the “differences in the plasma levels between risperidone-celecoxib and risperidone-placebo treatment” value (plasma, during the study (FIG. 4)) is “without statistical significance”. Moreover, the PANSS global score in data set [1] (at the start of the study) is listed as 37.2±7.1. In data set [1] (at the start of the study), this compound gave a PANSS negative score of 21.1±5.5. The PANSS total score in data set [1] (at the start of the study) is 75.4±12.9. Moreover, the PANSS positive score in data set [1] (week 0 (start of the study), mean ± SD, 25 patients per group) amounted to 17.2 ± 4.6; in data set [1] (week 0 (start of the study), mean ± SD, 25 patients per group, listed as risperidone-placebo), 17.2±4.6; in data set [1] (week 1, LOCF), 16.2 ± 4.6; in data set [1] (week 2, LOCF) it was 15 ± 4.5; in data set [1] (week 3, LOCF) it was 14.5 ± 4.6; in data set [1] (week 4, LOCF), 14.2 ± 4.4. This compound had a PANSS positive score in data set [1] (week 5, LOCF) of 13.3 ± 4.4.
